Assay [1] can be described thus: Counterscreen for […] of the human trace amine associated receptor 1 (TAAR1): Fluorescence-based cell-based high throughput dose response assay to identify nonselective Ga16 agonists. Type of assay: functional. (A counterscreen serves to expose hits that act by an unwanted route or on another target.)
Assay [2] has as its target T1, Trace amine-associated receptor 1 (Homo sapiens, UniProt Q96RJ0).
T1 sequence (Q96RJ0 whole entry): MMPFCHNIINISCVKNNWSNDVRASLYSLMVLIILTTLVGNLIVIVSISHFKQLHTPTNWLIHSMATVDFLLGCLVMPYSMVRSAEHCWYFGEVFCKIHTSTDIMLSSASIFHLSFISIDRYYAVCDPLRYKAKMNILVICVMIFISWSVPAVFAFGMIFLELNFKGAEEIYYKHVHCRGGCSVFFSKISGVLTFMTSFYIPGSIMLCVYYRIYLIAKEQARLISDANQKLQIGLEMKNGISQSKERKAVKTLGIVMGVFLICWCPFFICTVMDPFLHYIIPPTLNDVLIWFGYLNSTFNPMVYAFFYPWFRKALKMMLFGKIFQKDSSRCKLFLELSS
Nature of the assay: Fluorescence-based cell-based high throughput dose response assay to identify antagonists of the human trace amine associated receptor 1 (TAAR1). Type of assay: functional.

Assay [3] in a line: Counterscreen for antagonists of the human trace amine associated receptor 1 (hTAAR1): Fluorescence-based cell-based high throughput dose response assay to identify nonselective Ga16 antagonists. The format is functional.
Assay [4] deals with T1, Trace amine-associated receptor 1. Nature of the assay: Counterscreen for antagonists of the human trace amine associated receptor 1 (hTAAR1): Fluorescence-based cell-based high throughput dose response assay to identify TAAR1 Agonists. Type of assay: functional.
The next assay has as its target Major prion protein (Homo sapiens, UniProt P04156). Type of assay: functional, cell-based.
The nature of assay [5]: cells.
Assay [6] is described as follows: HepG2 cell cytotoxicity, dose response, cytotoxicity control, plate reader, dry powder, set 6 (AID 743311). The format is functional, cell-based.
The nature of assay [7]: cells. As to conditions: HEK293.
Assay [8] deals with Cryptococcus neoformans. Kind of assay: PubChem AID 686997. Type of assay: functional, organism-based.
For another assay, the system named is HeLa. Nature of the assay: HeLa cell cytotoxicity, dose response, cytotoxicity control, ATP luminescence, cherry-pick samples (AID 687004). Type of assay: functional, cell-based.
In assay [9] the test system is Cryptococcus neoformans. Kind of assay: Cryptococcus growth inhibition by alamar blue – cell lysis, cherry-picks, replicate tests, mechanism study for C. neoformans antifungal project, dose response (AID 686999). The format is functional, organism-based. (Alamar Blue is a resazurin reagent that responds to reducing activity.)
For another assay, the system named is HEK293. Kind of assay: HEK293T cell cytotoxicity, dose response, cytotoxicity control, ATP luminescence, cherry-pick samples (AID 687005).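 Further: cells exposed to compound for 48 hours.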 Type of assay: functional, cell-based. As to conditions: Homo sapiens.
Assay [10] is described as follows: HEK293 Cytotoxicity Assay Measured in Cell-Based System Using Plate Reader - 7071-01_Inhibitor_Dose_CherryPick_Activity_Set2. Type of assay: functional.
Assay [11] can be described thus: NIH-3T3 fibroblast cytotoxicity, dose response, cytotoxicity control, cell-based, fluorescence, Alamar Blue, secondary assay (AID 2327).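 Further: NIH-3T3 mouse fibroblasts cultured with fluconazole at 8 µg/mL.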 The format is functional.
The nature of assay [12]: C. albicans growth with fluconazole, confirmation, fluorescence, retest (AID 2467). Type of assay: functional, cell-based.
The nature of assay [13]: inhibitors of intracellular T. cruzi replication, confirmation, NIH3T3 host cells, beta-gal luminescence (AID 2044).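 Further: intracellular parasites grown in NIH/3T3 mouse fibroblasts as host cells; luminescent beta-galactosidase reporter signal from transgenic T. cruzi replicating inside host cells; inhibitors lower the luminescence signal.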 The format is functional, cell-based.
Assay [14] can be described thus: cytotoxicity toward NIH3T3 fibroblasts, dose response, counter-screen, cell-based, ATP luminescence, mouse fibroblasts (AID 2010).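 Further: cells exposed to compound for about 90 hours before reading.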 Type of assay: functional.
Assay [15] can be described thus: ADAM10 inhibitors, peptide cleavage, dose response, biochemical, QFRET (AID 743254).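 Further: ADAM10 enzyme with the DM2 quenched FRET peptide as substrate; EDANS fluorescence gain as the protease cuts the substrate; inhibitor potency against ADAM10 proteolytic activity.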
Assay [16] deals with Disintegrin and metalloproteinase domain-containing protein 17 (Homo sapiens, UniProt P78536). Nature of the assay: ADAM17 protease inhibitors, dose response, counter-screen for ADAM10 exosite inhibitor project, biochemical, quenched FRET substrate (AID 743253).
Another assay deals with fMet-Leu-Phe receptor (Homo sapiens, UniProt P21462). Nature of the assay: FPR ligands, dose response (AID 519). Type of assay: functional.
For assay [17], the target named is Induced myeloid leukemia cell differentiation protein Mcl-1 (Homo sapiens, UniProt Q07820). Type of assay: functional.
The target of assay [18] is T2, Carboxy-terminal domain RNA polymerase II polypeptide A small phosphatase 1 (Homo sapiens, UniProt Q9GZU7).
T2 sequence (Q9GZU7 whole entry): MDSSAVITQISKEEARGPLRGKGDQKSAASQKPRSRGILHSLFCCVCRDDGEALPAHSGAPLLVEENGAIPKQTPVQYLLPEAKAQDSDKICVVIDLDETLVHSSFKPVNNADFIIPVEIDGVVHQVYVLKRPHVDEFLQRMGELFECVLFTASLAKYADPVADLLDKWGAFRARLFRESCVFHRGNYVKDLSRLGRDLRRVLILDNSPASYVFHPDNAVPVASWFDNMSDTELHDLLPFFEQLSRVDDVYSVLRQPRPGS
Nature of the assay: inhibitors of CTDSP1, concentration-response testing, biochemical assay, absorbance-based, actives from ultra-high-throughput screening (AID 540297). The format is functional.

The target of assay [19] is T3, Probable nicotinate-nucleotide adenylyltransferase (Staphylococcus aureus (strain N315), UniProt P65502). Type of assay: functional, Staphylococcus aureus subsp. aureus N315.
Assay [20] has as its target T3, Probable nicotinate-nucleotide adenylyltransferase. Type of assay: functional, Staphylococcus aureus subsp. aureus N315. As to conditions: read-out: IC50_Mean.
Assay [21] in a line: Luminescence-based cell-based high throughput dose response assay to identify activators of the DAF-12 from the parasite S. stercoralis (ssDAF-12). The format is functional.
A further assay addresses Paired box protein Pax-8 (Homo sapiens, UniProt Q06710). Kind of assay: inhibitors of PAX8-driven TPO luciferase reporter, dose response, RMG-I cells, cherry-pick (AID 687027).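 Further: luciferase reporter driven by Pax8 target thyroperoxidase promoter measured by SteadyGlo luminescence.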 Type of assay: functional, cell-based. (In general: In a reporter assay the amount or activity of a reporter protein is the signal.)
The nature of assay [22]: A2780 ovarian cancer cell cytotoxicity, dose response, cytotoxicity control, plate reader, dry powder samples (AID 743046). The format is functional, cell-based.
Assay [23] is described as follows: THP-1 cell cytotoxicity, dose response, cytotoxicity control for Vif-APOBEC3G degradation inhibitor project, THP-1 cells (AID 1117359). Type of assay: functional. Particulars: Human immunodeficiency virus 1, THP-1.

The source made the active and inactive calls.
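Wherever IC50 Mean is given: confirmatory dose-response retesting of NadD inhibitor hits first found in an ultra-high-throughput screen.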

With `CC(C)C[C@H](NC(=O)c1[nH]cnc1C(=O)NCC(=O)OCc1ccccc1)C(=O)OCc1ccccc1`, the EC50 in [1] and in assay [4] was > 29.9 µM (inactive) each time. Further, the IC50 in assay [2] was 4.32 µM (active); in assay [3], > 29.9 µM (inactive).
Take `O=C(COc1ccc2ccccc2c1Br)Nc1ccncc1`: the figures for the IC50 on Major prion protein and in “cells [5]” were 10.4 µM (inactive) and > 138 µM (inactive), respectively.
As for `CC(C)(C)c1ccc(OCCn2cnc3ccccc32)c(Cl)c1`, the results for the AC50 (in assay [6]; in the assay “cells [7]”) were 36.6 µM (active) and 37.4 µM (active), respectively.
Turning to `COC(=O)C1=C(C)N(CC(C)C)C(=S)NC1c1ccc(-c2ccccc2)cc1` (centres undefined), the concentration at half-maximal activity (AC50) is 23.6 µM (active) with Cryptococcus neoformans [8]; 15.6 µM (active) with Cryptococcus neoformans [8] (Cryptococcus neoformans); > 52 µM (inactive) with HeLa; 42 µM (active) in the assay on HeLa (Homo sapiens); 51.6 µM (active) in the assay on Cryptococcus neoformans [9]; 20.4 µM (active) with HEK293. For the same compound, the half-maximal activity concentration (AC50) in [10] was 20.4 µM (active).
Take `O=C(NNc1ccccc1)C(=O)NNS(=O)(=O)c1ccc(CCCl)cc1`: the concentration for a half-maximal effect (EC50) in assay [11] is 2.67 µM (inconclusive); in assay [12] it was > 38 µM (not active); in assay [13], 2 µM (active); in assay [14] it was 3.48 µM (active). Further, the IC50 in assay [15] is 23.4 µM (inactive); in [16], 27 µM (inactive).
On to `O=[N+]([O-])c1ccc(-c2c(-c3ccccc3)ncc3ccc(F)cc23)cc1`, for which the EC50 in [1] and in assay [4] was > 29.9 µM (inactive) throughout. Further, the IC50 is 1.83 µM (active) in assay [2] and > 29.9 µM (inactive) in [3].
Take `Cc1cc(N2C(=O)C(O)=C(C(=O)c3ccco3)C2c2cccnc2)no1` (centres undefined): the Ki at fMet-Leu-Phe receptor was > 66.7 µM (inactive).
Turning to `Cc1csc(NC(=O)c2cc(-c3ccco3)nc3ccccc23)n1`, the IC50 was 4.03 µM (active) in [17]; 4.76 µM (active) in assay [18]; 9.45 µM (active) in assay [19]; 18.4 µM (active) in [20]; > 67.5 µM (inactive) in assay [21].
Take `C[C@H]1CN([C@@H](C)CO)C(=O)Cc2cc(NC(=O)Nc3ccc(C(F)(F)F)cc3)ccc2O[C@H]1CN(C)C(=O)Nc1ccc(C(F)(F)F)cc1`: the results for the AC50 (on Paired box protein Pax-8; in assay [22]) were 13 µM (active) and 25.8 µM (active), respectively.
As for `COc1cccc(-c2nc(CS(=O)(=O)CC(=O)NC3CC3)c(C)o2)c1`, the 50% cytotoxic concentration (CC50) in assay [23] was > 40 µM (active).

By EC50 is commonly meant the midpoint of the concentration-response curve. Broadly, the AC50 is the concentration at which the activity in the assay is half-maximal. Usually Ki stands for the equilibrium dissociation constant of an inhibitor or competing ligand from its target. Broadly, the CC50 is the concentration that lowers cell viability or growth by half.

For the origin of these results see ChEMBL document CHEMBL1201862, “PubChem BioAssay data set” (2004).
